We go through six compounds from ChEMBL document CHEMBL5325500, “Mannich Base PIP-199 Is a Chemically Unstable Pan-Assay Interference Compound” (J Med Chem, 2023).

The species entered for data set [1] is Homo sapiens. The data set can be described thus: Binding affinity to biotinylated RMI1/RMI2 (unknown origin) at 12.5 to 200 uM associated for 60 secs and dissociated for 60 secs by SPR analysis. Conditions: dose 12.5-200 µM, time 120.0 sec. On the technique in general: SPR reads the build-up and loss of mass on a sensor chip optically.
For data set [2], the species on record is Homo sapiens. Kind of data set: Displacement of N-terminal TAMRA-labeled SRDLFSVTFDLGFCSPDSDD-NH2 tracer from RMI1/RMI2 (unknown origin) in 50 mM Tris buffer pH 8.8 at 125 uM incubated for 1 hr by fluorescence polarization assay.
Data set [3] in a line: Stability in phosphate buffer at pH 7 to 8 assessed as drug degradation at 250 uM measured after 1.5 hrs by 1H-NMR analysis. In kind it is physicochemical. Conditions: pH 7, 1.5 h.
Data set [4] can be described thus: Stability in phosphate buffer at pH 6 assessed as drug degradation at 250 uM measured after 1.5 hrs by 1H-NMR analysis. It is filed as physicochemical. Conditions: read-out: Drug degradation.
Data set [5] is described as follows: Stability of compound in H2O/MeCN with 0.1% formic acid assessed as (2-phenyl-1H-indol-3-yl)(pyridin-2-yl)methanol formation by measuring retention time at 250 uM measured after 1.5 hrs by LC-MS analysis. In kind it is physicochemical.
The nature of data set [6]: Stability of compound in H2O/MeCN with 0.1% formic acid assessed as retention time of intact compound at 250 uM measured after 1.5 hrs by LC-MS analysis. It is filed as physicochemical.
Data set [7] can be described thus: Stability in potassium phosphate buffer at pH 6 to 8 assessed as drug degradation at 250 uM measured after 1.5 hrs by 1H-NMR analysis. In kind it is physicochemical. Conditions: pH 6, 1.5 h.
Data set [8] in a line: Stability of compound in H2O/MeCN with 0.1% formic acid assessed as elimination of piperazine at 250 uM measured after 1.5 hrs by LC-MS analysis. It is filed as physicochemical.
A short description of data set [9]: Stability of compound in H2O/MeCN with 0.1% formic acid assessed as formation of 2-phenyl-3-(pyridin-2-ylmethylene)-3H-indole 1-oxide by measuring retention time at 250 uM measured after 1.5 hrs by LC-MS analysis. It is filed as physicochemical.
Data set [10] is described as follows: Stability of compound in H2O/MeCN with 0.1% formic acid assessed as formation of 2-phenyl-3-(pyridin-2-ylmethylene)indoline-1,2-diol by measuring retention time at 250 uM measured after 1.5 hrs by LC-MS analysis. In kind it is physicochemical.
A short description of data set [11]: Stability of compound in H2O/MeCN with 0.1% formic acid assessed as isomer of nitrone formation by measuring retention time at 250 uM measured after 1.5 hrs by LC-MS analysis. In kind it is physicochemical.
Data set [12] in a line: Stability of compound in phosphate buffer at pH 7 to 8 assessed as formation of 2-phenyl-3-(pyridin-2-ylmethylene)-3H-indole 1-oxide at 50 uM measured every 0.1 secs for 3 mins by UV-Vis spectroscopy. In kind it is physicochemical. The conditions noted are these: pH 7, 2.778e-05 h, time 0.1 sec.
A short description of data set [13]: Stability of compound in 50 mM phosphate buffer at pH 6 to 8 assessed as drug decomposition at 250 uM measured after 1.5 hrs by NMR analysis. The conditions noted are these: pH 6, 1.5 h. In kind it is physicochemical.
Data set [14] is described as follows: Stability of compound in 10 mM Tris buffer at pH 8.8 assessed as drug decomposition at 250 uM measured after 1.5 hrs by NMR analysis. In kind it is physicochemical. The conditions noted are these: pH 8.8, 1.5 h.
Data set [15] can be described thus: Stability of compound in 10 to 50 mM HEPES buffer at pH 7.4 assessed as drug decomposition at 250 uM measured after 1.5 hrs by NMR analysis. In kind it is physicochemical. Conditions: pH 7.4, 1.5 h.
Data set [16] in a line: Stability of compound in 50 mM Tris buffer at pH 8.8 assessed as drug decomposition at 250 uM measured after 1.5 hrs by NMR analysis. In kind it is physicochemical. The conditions noted are these: pH 8.8, 1.5 h.
Data set [17] is described as follows: Stability of compound in 10 to 50 mM NH4Cl buffer at pH 8.8 assessed as drug decomposition at 250 uM measured after 1.5 hrs by NMR analysis. In kind it is physicochemical. Conditions: pH 8.8, 1.5 h.
The species entered for data set [18] is Homo sapiens. The data set can be described thus: Displacement of N-terminal TAMRA-labeled SRDLFSVTFDLGFCSPDSDD-NH2 tracer from RMI1/RMI2 (unknown origin) in 10 mM Tris buffer pH 8.8 at 125 uM incubated for 1 hr by fluorescence polarization assay. On the technique in general: Polarisation of emitted light reports the rotation of a fluorescent probe.
Data set [19] can be described thus: Solubility of compound assessed as precipitation at >250 uM. It is filed as physicochemical.

The structures appear in SMILES notation. The source made the active and inactive calls. The calls are words filed in the database; no cut-off is given here.

For the compound `c1ccc(-c2[nH]c3ccccc3c2C(c2ccccn2)N2CCCCC2)cc1` (stereo not drawn), the outcome in data set [1] and in data set [2] was inactive.
With `CCOC(=O)N1CCN(C(c2ccccn2)c2c(-c3ccccc3)[nH]c3ccccc23)CC1` (stereo not drawn), the Stability entry in data set [3] was “Stable”. Moreover, in data set [4], the degraded at 1.5 h, 250 µM was 50%. Also, the Retention_time came to 7.3 min in data set [5] and 8.7 min in data set [6]. Moreover, the result in data set [1] and in data set [2] was inactive.
As to `CCOC(=O)N1CCN(C(c2ccccn2)c2ccc3ccccc3c2O)CC1` (stereo not drawn), the result in data set [1] and in [2] was inactive.
Take `CCOC(=O)N1CCN(C(c2ccccc2)c2c(-c3ccccc3)[nH]c3ccccc23)CC1` (stereo not drawn): the outcome in data set [2] was inactive.
Regarding `CCOC(=O)N1CCN(C(c2ccccn2)c2c(C)[nH]c3ccccc23)CC1` (stereo not drawn), the outcome in [1] and in data set [2] was inactive.
Consider `CCOC(=O)N1CCN(C(c2ccccn2)c2c(-c3ccccc3)n(O)c3ccccc23)CC1` (stereo not drawn), for which the Stability result in data set [7], in data set [8], in data set [12], in data set [13], in data set [14] and in data set [15] was “Unstable” in each case. For the same compound, the Stability result in [16] is recorded as “Stable”; in data set [17], “Unstable”. The values for the Retention_time in [9], in data set [10] and in [11] were 11.4 min, 8.2 min and 9.5 min, respectively. In addition, the result in [1], in data set [18] and in [2] was inactive. Besides, the solubility result in data set [19] is on record as “Insoluble”.
